The target in data set [1] is T1, PHD2 (Homo sapiens, UniProt Q9GZT9).
T1 construct: The catalytic domain of PHD2 (residues 181–426) was purified as described; made in house
Put plainly: O2 dependence of PHD2-catalyzed hydroxylation (sealed vials, N2/O2 mixes). The data set is classed as biochemical. The note with it: PHD2 with the named 19-mer substrate; 4 μM PHD2, 50 μM Fe(II), 4 mM L-ascorbate, 50 mM HEPES pH 7.5, 37 °C, O2 levels set by mass flow controllers; triplicate assays; read-out: Km^app(O2). The procedure:
The O2 dependence of FIH-catalyzed reactions was determined by conducting enzymatic assays in an “In vivo 500 Hypoxia Workstation” (Ruskinn) using buffers pre-equilibrated under different pO2 values for 24 h. The O2 dependence of PHD2-catalyzed reactions was determined by conducting enzymatic assays in sealed glass vials with variable N2/O2 contents ([42]). Reactions were stopped by spotting samples onto a matrix-assisted laser desorption/ionization-time of flight mass spectrometry (MALDI-TOF-MS) target plate and immediately mixing with α-cyano-4-hydroxycinnamic acid matrix. Hydroxylation levels were assessed by MALDI-TOF-MS as described ([46]).
FIGURE 4. O2 dependence of FIH- and PHD2-catalyzed hydroxylation of HIF-1/2α. A, O2 dependence of PHD2-catalyzed hydroxylation of HIF-1/2α CODD/NODD 19-mer peptides. 4 μM PHD2, peptide (varied), 50 μM Fe(II), 2OG (varied), 4 mM L-ascorbate in HEPES 50 mM (pH 7.5) were incubated at 37 °C. The different O2 levels were maintained using mass flow controllers ([42]), and the hydroxylation levels were analyzed by MALDI-TOF-MS. B, O2 dependence of FIH-catalyzed hydroxylation of CAD HIF-1/2α 35-mer peptides. Conditions were as follows. 5 μM FIH, 500 μM peptide, 50 μM Fe(II), 1 mM 2OG, 1 mM L-ascorbate in HEPES 50 mM (pH 7.5) were incubated at 37 °C in a hypoxia work station under different pO2. […] Error bars, S.D. of triplicate assays.

In data set [2] the target is T1, PHD2. Put plainly: Rapid quench-flow, PHD2 pre-steady-state product and succinate formation. The data set is classed as biochemical. The following applies: same mixture as stopped-flow, O2-saturated buffer 1:1, 5 °C, quenched with 1% CF3CO2H; for Rapid quench-flow kproduct: peptide hydroxylation by MALDI-TOF-MS, single exponential fit; for Rapid quench-flow ksuccinate: succinate by LC-MS. How it is done: Rapid quench-flow experiments were performed using the same conditions and preparation of the assay mixture as used in stopped-flow experiments. Rapid quench-flow equipment (TgK Scientific Ltd.) in an anaerobic glove box was used for the experiments. Samples were quenched with 1% CF3CO2H and analyzed using MALDI-TOF-MS (peptide hydroxylation) as described above or liquid chromatography-mass spectrometry (LC-MS, for succinate production). For LC-MS, chromatographic separation was performed at 50 °C using a Waters ACQUITY BEH Amide 1.7-μm, 2.1 × 100-mm column on a Waters ACQUITY^TM ultraperformance liquid chromatography system (Waters Corp., Milford, MA). The following eluents were used: mobile phase A: 10% H2O, 90% acetonitrile (v/v), 10 mM ammonium formate; mobile phase B: 50% H2O, 50% acetonitrile (v/v), 10 mM ammonium formate. The elution gradient was 0–7.0 min linear from 10 to 30% B, and 7.0–9.0 min at 10% B for re-equilibration of the column. A constant flow rate of 0.4 ml/min was used. Analytes were detected in negative ionization mode using single reaction monitoring on a Quattro triple quadrupole mass spectrometer (Waters) with a cone voltage of 15 V and a capillary voltage of 3.0 kV. The desolvation temperature was set to 250 °C, and the source temperature was set to 120 °C.
To investigate correlation of the spectroscopic observations with rates of product accumulation, equivalent reactions were analyzed by rapid quench-flow methodology. Anerobically prepared PHD2·Fe(II)·2OG·peptide substrate complexes were mixed with O2-saturated buffer in a 1:1 ratio; reactions were quenched at defined time points with 1% aqueous CF3CO2H. The level of peptide hydroxylation was assessed by MALDI-TOF-MS ([42]), and succinate accumulation was analyzed by LC-MS. To obtain rate constants for product accumulation, the results were fitted with a single exponential function (Fig. 5E and Table 3).

Data set [3] is described as follows: CD spectroscopy and thermal denaturation of 2CA and 3CA. The data set is classed as physicochemical. The following applies: for secondary structure in solution by circular dichroism: 0.2 mg/ml protein in 10 mM sodium phosphate buffer pH 8.0 (Fig. 7), thermal denaturation 10 to 90 °C. The procedure:
CD spectra were recorded using a Chirascan CD/fluorimeter (Applied Photophysics) spectrometer. Measurements were carried out at 20 °C in a 0.1 cm path length quartz cuvette, with protein concentration of 0.125 mg/ml in 5 mM sodium phosphate buffer (pH 8.0). Spectra were recorded in the wavelength range of 260–190 nm at 0.5-nm intervals, and each spectrum represents an average of three scans. Spectra were baseline-corrected by subtraction of the buffer spectrum. Data were expressed as the mean residue ellipticity ([θ], degrees·cm^2·dmol^−1). Thermal denaturation experiments were performed under the same conditions. The ellipticity at 220 nm (θ220) was monitored from 10 to 90 °C.
FIGURE 7. CD spectroscopic comparison of 2CA and 3CA secondary structure. Thermal denaturation experiments of 2CA and 3CA are shown. Conditions were as follows. 0.2 mg/ml protein in 10 mM sodium phosphate buffer (pH 8.0) was studied at 222 nm for thermal denaturation experiments between 10 and 90 °C. A, melting curves of 2CA. B, spectra of 2CA between 260 and 190 nm at 10 °C, after heating to 90 °C and after cooling again to 10 °C. C, melting curves of 3CA. D, spectra of 3CA between 260 and 190 nm at 10 °C, after heating to 90 °C, where the α-helical structure is predominantly lost, and after cooling again to 10 °C, where the structure is largely regained.

This note sets out measurements from article PMC4528135, “Kinetic Investigations of the Role of Factor Inhibiting Hypoxia-inducible Factor (FIH) as an Oxygen Sensor” (The Journal of Biological Chemistry, 2015).

T1 sequence (Q9GZT9 181-426): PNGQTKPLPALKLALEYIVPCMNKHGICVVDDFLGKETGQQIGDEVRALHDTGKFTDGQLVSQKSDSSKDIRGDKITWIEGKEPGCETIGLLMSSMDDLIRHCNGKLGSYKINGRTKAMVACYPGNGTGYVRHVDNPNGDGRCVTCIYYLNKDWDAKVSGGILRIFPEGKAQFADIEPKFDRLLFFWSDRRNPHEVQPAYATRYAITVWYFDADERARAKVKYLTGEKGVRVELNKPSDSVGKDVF

As usually defined, the Km is the concentration of substrate that gives half-maximal velocity. Take “EELAQLAPTPGDAIISLDF [HIF-2α NODD, 19-mer fragment (398–416) of the HIF-2α N-terminal oxygen-dependent degradation domain, PHD2 substrate]”: the Km at PHD2 [1] came to 410 ± 80 µM. Besides, on PHD2 [2], the Rapid quench-flow kproduct was 0.0199 ± 0.0032 s⁻¹ and the Rapid quench-flow ksuccinate was 0.0270 ± 0.0060 s⁻¹.

“ELDLETLAPYIPMDGEDFQ [HIF-2α CODD, 19-mer fragment (523–541) of the HIF-2α C-terminal oxygen-dependent degradation domain, PHD2 substrate]”: the Km on PHD2 [1] was greater than 450 µM. Also, on PHD2 [2], the Rapid quench-flow kproduct turned out to be 0.0124 ± 0.0030 s⁻¹ and the Rapid quench-flow ksuccinate is 0.0120 ± 0.0070 s⁻¹.

With “GSHMGSDLGKKLLEAARAGQDDEVRILMANGADVAAKDKNGSTPLHLAARNGHLEVVKLLLEAGADVNAQDKFGKTAFDISIDNGNEDLAEILQ [3CA, recombinant three-consensus ankyrin repeat protein produced in Escherichia coli]”, the “secondary structure in solution by circular dichroism” value in data set [3] was “folded in solution”.

Turning to “SDKNGSTPLHLAARNGHLEVVKLLLEHGADVNAQDKWGKTAFDISIDNGNEDLAEILQ [2CA, recombinant two-consensus ankyrin repeat protein produced in Escherichia coli]”, in data set [3], the “secondary structure in solution by circular dichroism” value is on record as “does not possess significant secondary structure”. Also, the “temperature above which the protein is unfolded (CD)” value in data set [3] (thermal denaturation between 10 and 90 °C, sodium phosphate buffer pH 8.0) was greater than 10 °C.
